Source: patent US20260042799A1, “APPLICATION OF PEPTIDE IN PREPARING DRUGS FOR TREATING AND/OR PREVENTING COGNITIVE IMPAIRMENT” (HUAZHONG UNIVERSITY OF SCIENCE AND TECHNOLOGY, priority 2024, published 2026)
Entries after “also recorded” stand apart in the source; their conditions may differ. Where no end group is shown, it is not given here.

Key:
[1] = Solubility of the synthesized peptide in water; format: physicochemical; conditions: white powder
Excerpt: The sequence of TAT-P6 is shown in SEQ ID NO:3, artificially synthesized by Jiangsu Qiangyao Biotechnology Co., Ltd., and the mass spectrometry analysis is shown in FIG. 1. […] The sequence of TAT-S6 is shown in SEQ ID NO:4, also synthesized by the same company.

[2] = system: P301S mice; test: Open field test, P301S mice; format: in vivo; conditions: C57 and P301S mice, 15 mg/kg subcutaneous, 14 days
Excerpt: (§1) FIG. 3A to FIG. 3J show the statistical chart of TAT-P6 peptide improving mouse learning memory ability results. FIGS. 3A-B are behavioral experiments for four groups of mice (C57 mice injected with TAT-S6 group, C57 mice injected with TAT-P6 group, P301S mice injected with TAT-S6 group, P301S mice injected with TAT-P6 group) using open field test system.
(§2) Male P301S mice 6-8 months old (purchased from Jackson Laboratory), C57/BL6 mice 6-8 months old (purchased from Beijing Vital River Laboratory Animal Technology Co., Ltd.), SPF grade, weight 20-25 grams, raised in conventional environment.
Open field experiment: The open field experiment is an experiment in which animals are placed in a closed open metal box area with a length of 80 cm, width of 80 cm, and height of 50 cm to observe mouse activity. This area is divided into squares, and typically the number of squares crossed by mice within a given time is counted to examine the anxiety emotional state and movement ability of the experimental mice. […] The experimental area is set up on the computer, the experimental area is divided equally into a “ ? ” shape, with the innermost circle as the central region and the outermost as the peripheral region, then the camera is turned on, the light source is adjusted, and information such as the position, movement route, and distance of the experimental mice is recorded using the computer. […]

[3] = system: P301S mice; test: Novel object recognition test; format: in vivo; conditions: 15 mg/kg subcutaneous, 14 days
Excerpt: as §1, §2
• 1) Mouse spatial memory detection: novel object recognition and water maze; • a) Novel object recognition: Before conducting the novel object recognition test, it is necessary to eliminate unfamiliarity with the mice by petting them daily to prevent stimulation during operation. The first stage is adaptation period. […] Within 5 min (many experiments have proven that after 2 min of familiarization period, animals already show good preference for novel objects, and of course, 3 min of familiarization makes the preference more obvious), the number of times, time, and distance the animal explores each object are measured. […] If the platform is not found within 90 s, the system automatically stops recording, and the latency period is recorded as 90 s. […]

[4] = system: P301S mice; test: Morris water maze test; format: in vivo; conditions: detection stage on the 8th day, 15 mg/kg subcutaneous, 14 days
Excerpt: as §1, §2
• 1) Mouse spatial memory detection: novel object recognition and water maze; • a) Novel object recognition: Before conducting the novel object recognition test, it is necessary to eliminate unfamiliarity with the mice by petting them daily to prevent stimulation during operation. The first stage is adaptation period. Mice move freely in the experimental device (without objects) for 10 minutes. The second stage is familiarization period. […] Within 5 min (many experiments have proven that after 2 min of familiarization period, animals already show good preference for novel objects, and of course, 3 min of familiarization makes the preference more obvious), the number of times, time, and distance the animal explores each object are measured. […] During training, the mouse is gently placed in the water from a ½ radian position of any quadrant with its head facing the pool wall, and its latency period (the time taken by the mouse to find the platform from entering the water) and path are detected as indicators to measure the mouse's learning memory and test performance. […] If the platform is not found within 90 s, the system automatically stops recording, and the latency period is recorded as 90 s. […] The initial training period is 6 days, with daily recording of the time needed for mice to find the platform, recorded as the latency period required for mice to find the platform. […]

[5] = target: T1, binding between HA-GluA2 and EGFP-Syn2b (Homo sapiens, UniProt P42262); test: Co-immunoprecipitation/immunoblotting of Syn2b-GluA2 binding in co-transfected HEK293T cells; format: cell-based; conditions: 10 μM peptide in culture medium for 90 minutes, 48 hours after transfection
T1 construct: HA; expressed in transfected cells; host or cells: HEK293T
Method: First, HA-GluA2 and EGFP-Syn2b overexpression plasmids were transfected into HEK293T cells. After 48 hours of transfection, 10 μM concentration of TAT-P6 and TAT-S6 peptides were given in the cell culture medium for 90 minutes, […] and then cells were collected. The overexpressed Syn2b protein is a fusion protein of Syn2b and GFP, using anti-GFP antibody to precipitate cellular proteins, and then using anti-GluA2 antibody to detect the precipitated proteins, the black imprint on the NC membrane indicates the interaction between GluA2 and Syn2b.
Open field experiment: The open field experiment is an experiment in which animals are placed in a closed open metal box area with a length of 80 cm, width of 80 cm, and height of 50 cm to observe mouse activity. This area is divided into squares, and typically the number of squares crossed by mice within a given time is counted to examine the anxiety emotional state and movement ability of the experimental mice. […] Recording is stopped after observing for a certain time, generally about 5 minutes. • 3) Quantify mouse hippocampal related protein content: immunoblotting; • 4) Disrupting the binding of Syn2b and GluA2 in HEK 293T cells: co-immunoprecipitation, immunoblotting. […]

T1 sequence (P42262 25-883): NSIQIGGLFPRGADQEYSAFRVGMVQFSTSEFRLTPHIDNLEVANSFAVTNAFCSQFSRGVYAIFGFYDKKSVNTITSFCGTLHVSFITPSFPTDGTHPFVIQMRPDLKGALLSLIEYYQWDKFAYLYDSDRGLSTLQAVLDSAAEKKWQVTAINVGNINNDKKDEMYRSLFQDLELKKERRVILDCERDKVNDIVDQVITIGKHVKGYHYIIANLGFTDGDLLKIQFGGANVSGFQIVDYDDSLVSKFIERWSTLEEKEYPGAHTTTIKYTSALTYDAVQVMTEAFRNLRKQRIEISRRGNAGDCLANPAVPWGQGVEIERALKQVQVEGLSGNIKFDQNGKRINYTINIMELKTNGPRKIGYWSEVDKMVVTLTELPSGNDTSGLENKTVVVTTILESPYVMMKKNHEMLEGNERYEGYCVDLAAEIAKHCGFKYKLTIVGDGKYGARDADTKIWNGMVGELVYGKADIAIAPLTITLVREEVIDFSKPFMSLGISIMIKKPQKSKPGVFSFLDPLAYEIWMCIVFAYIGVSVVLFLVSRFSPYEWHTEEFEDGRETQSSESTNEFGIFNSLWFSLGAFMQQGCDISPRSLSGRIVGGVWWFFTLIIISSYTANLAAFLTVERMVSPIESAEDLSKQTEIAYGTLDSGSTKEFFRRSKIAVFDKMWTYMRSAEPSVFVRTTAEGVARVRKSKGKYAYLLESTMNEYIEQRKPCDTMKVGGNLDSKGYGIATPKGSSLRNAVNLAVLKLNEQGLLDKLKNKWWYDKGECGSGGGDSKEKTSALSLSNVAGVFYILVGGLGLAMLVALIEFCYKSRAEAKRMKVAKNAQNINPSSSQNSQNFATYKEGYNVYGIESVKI

Sequence | solubility in water [1] | movement ability of mice [2] | time spent at the new object [3] | latency to reach the platform in the water maze [4] | number of times crossing the platform position in the water maze [4] | time spent in the target quadrant in the water maze [4] | GluA2 detected by anti-GluA2 antibody in anti-GFP (Syn2b) precipitate; interaction between Syn2b and GluA2 [5]
YGRKKRRQRRRYILDCN [TAT-P6, YGRKKRRQRRRYILDCN] | completely soluble; also recorded: completely dissolved in water | – | – | – | – | – | –
YGRKKRRQRRRCNDILY [TAT-S6] | – | did not change the movement ability | spent less time at the new object | prolonged latency to reach the platform | crossed the platform significantly fewer times | spent significantly less time in the target quadrant | could be clearly detected
